Data reported in patent publication EP0576227A2, “2'-Deoxy-2',2'-difluoro(2,6,8-substituted) purine nucleosides having anti-viral and anti-cancer activity and intermediates” (ELI LILLY AND COMPANY, priority 1992, dated 1993).
In brackets after ≈: the same amount, converted by molar mass.

Assays:
[1] = test system: human leukemia cells (CCRF-CEM cell line); assay: Growth inhibition of human leukemia cells (CCRF-CEM cytotoxicity screen); assay type: cell-based; conditions: concentration giving 50 percent growth inhibition; CCRF-CEM cell line
From the text: In another aspect, the invention provides a method of treating susceptible neoplasms in mammals comprising administering to a mammal in need of such treatment a pharmaceutically effective amount of a compound of formula (I). […] The treatment contemplated by the present method includes both medical therapeutic and prophylactic treatment, as appropriate. The specific dosage level of the compound administered according to this invention will, of course, be determined by the circumstances surrounding the case, including, for example, the particular compound administered, the route of administration, and the condition being treated. The compounds are effectively administered orally, topically, or parenterally. […] The representative compounds of formula (I) employed in the present invention are cytotoxic as they inhibit the growth of rapidly dividing human leukemia cells (CCRF-CEM cell line). Table 1 below gives the results of testing several compounds representative of formula (I).

[2] = test system: Human Cytomegalovirus (HCMV) strain AD169; assay: Human Cytomegalovirus Test (plaque inhibition in WI-38 cells); assay type: cell-based; conditions: read-out: Percent Plaque Inhibition at Specified µg/ml conc.
Method: WI-38 cells (American Type Culture Collection; CCL-35) were seeded into 24-well plates in MEM media (GIBCO) supplemented with 10% fetal bovine serum and penicillin/streptomycin. The plates wre incbated at 37°C, in 5 percent carbon dioxide in a humidified incubator for 3 days. Human Cytomegalovirus (HCMV) strain AD169 (American Type Culture Collection) was added to each well (40 plaque forming unites in 100 µl of media) and the virus was allowed to adsorb to the cells for 2 hours at room temperature. The compound of Example 5 was dissolved in 100 percent dimethylsulfoxide at a concentration of 20 mgs/ml and diluted with media to yield final concentrations of 50, 25, 12.5, 6.25, 3.13, 1.6, 0.8, 0.4, 0.2, and 0.1 µg/ml in one set of experiments and 32, 10, 3.2, 1, and 0.32 µg/ml in another set of experiments. Each concentration was done in duplicate. In all experiments, Cytovene (DHPG) was used as a positive control.
The infected cells were incubated for 10 days at 37°C, 5 percent carbon dioxide, in an humidified incubator without changes of media. After incubation, the cells were fixed for at least 15 minutes with 10 percent formalin and rinsed with water. After rinsing, the cells were stained for at least 15 minutes with crystal violet and allowed to dry. HCMV induced plaques were counted with the aid of an iverted microscope. The number of viral plaques appearing in cells treated with each concentration of the Example 5 compound was compared to the number of viral plaques in cells left untreated ("no-drug control") and the percent inhibition of viral plaque formation was calculated. The concentration of the Example 5 compound required to inhibit viral plaque formation by 50 percent was determined using linear regression analysis.

[3] = test system: HC1 human colon carcinoma; assay: HC1 human colon carcinoma xenograft in mice, tumor weight inhibition; assay type: in vivo, Nu/Nu CD-1 mice; conditions: Intra-Peritoneal 0.5 ml, Daily X 10
From the text: The HC1 human colon carcinoma xenograft was obtained in 1987 from Drs. Peter and Janet Houghton, St. Jude Children's Hospital, Memphis, TN. The tumor is a moderately well-differentiated adenocarcinoma of the ascending colon [British Journal of Cancer, 37, p 213-223 (1987)]. The first passage tumor was stored in liquid nitrogen using standard techniques. The tumors were maintained in serial passage Nu/Nu CD-1 mice (Charles River Laboratories, Portage, MI.).
The study testing the efficacy of these compounds against HC1 human colon carcinoma was initiated by removing a tumor from passage animals and mincing it into 1 to 3 mm square fragments using sterile techniques. Tumor pieces were checked for sterility using both an Antibiotic Medium 1 and Brain Heart Infusion (Difco; Detroit, MI). Tumor pieces were implanted subcutaneously in the auxilary region of recipient mice by trocar. Drug therapy on the appropriate schedule was initiated 14 days after tumor implantation. Drugs were dissolved in Emulphor for all experiments. All animals were weighed at the beginning and end of drug treatment. Food and water were provided ad libitum. On day 14 after the initiation of therapy, two dimensional measurements (width and length) of all tumors were taken using electronic calipers interfaced to a computer. Tumor weights were calculated from these measurements using the following formula: Tumor Weight (mg) = Tumor Length (mm) X Tumor Width (mm)²/2
For all data, the tumor weight was rounded to the nearest tenth of a gram for analysis. No group is included in the analysis for therapeutic activity in which deaths attributable to drug toxicity exceeded 20 percent of the treated group. Compounds are considered active if more than 60 percent inhibition of tumor growth, as determined by tumor weight, is achieved at maximally tolerated doses.
In Table 2 which follows, Column 1 gives the example number of the compound tested; Column 2, the dose level; Column 3, the route administered; Column 4, the dosage schedule; Column 5, the percent inhibition of the tumor; and Column 6; the toxic deaths observed prior to completion of the study.

Hepatitis B Virus = Hepatitis B Virus Test (HBV DNA in supernatant of Hep10A cells, PCR / Southern blot); assay type: cell-based, human Hepatitis B Virus (HBV); conditions: 240 h
From the text: Plasmids were constructed using standard recombinant DNA techniques; see Sambrook, J., et al., Molecular Cloning: A Laboratory Manual, 2nd Edition (1989), Cold Spring Harbor Press, Cold Spring Harbor, NY. Plasmid pTHBV contains a head-to-tail dimer of the human Hepatitis B Virus (HBV) genome, subtype adw, clone into the EcoR I site of pUC9. […] and subcloned into the Sal I site of pTHBV after a two base fill-in reaction with the Klenow fragment of E. coli DNA polymerase I.
HepG2 cells (human hepatoblastoma, ATCC HB 8065) were routinely passaged in growth medium consisting of EARLE'S minimal essential media (Grand Island Biological Company (GIBCO) Bethesda Research Laboratories (BRL), Life Technologies, Inc., Gathersburg, MD.) supplemented with sodium pyruvate, 10 percent fetal bovine serum, 100 units/ml penicillin, and 100 µg/ml streptomycin. Hep10A cells were derived from HepG2 cells. Briefly, HepG2 cells were seeded into 60 mm culture dishes in growth medium, and when approximately 50 percent confluent, were transfected with pTHBVneo using the calcium phosphate precipitation method described by Graham, F.L. and Van der Eb in Virology, 52, p 456-467 (1973). After four hours of post-transfection, the cells were shocked with 10 percent dimethylsulfoxide and 20 percent glucose for 5 minutes, after which they were allowed to recover for 24 horus. The transfected cells were passaged and reseeded in the presence of growth medium containing 800 µg/ml geneticin. The cells were monitored for the appearance of geneticin resistant cells. A genecitin resistant cell line was established, and routinely passaged in growth medium containing 400 µg/ml geneticin. This cell line will be referred to as Hep10A.
Hep10A cells were seeded into 96-well microtiter plates at a density of approximately 50,000 cells per well, allowed to grow to confluence, and maintained at confluence for 2 to 4 days to allow Hepatitus B Virus derivative HBV DNA levels to stabilize; see Sells, M.A., et al., J. Virol., 62, p 2836-2844 (1987) and Korba, B.E., et al., Antiviral Res., 15, p 217-228 (1991). At this time, cells were treated with 2'-deoxy-2'-fluoroarabino-5-iodouridine (FIAU) and the compound of Example 5 for 10 days, with daily changes of media containing fresh drug. FIAU was used as a positive control. On day 10, culture supernatant samples were taken and stored at 4°C until needed. PCR analysis was performed on supernatant samples using appropriate primers to amplify a 477 base pair fragment from the "a" determinant of the surface antigen gene of HBV subtype adw. Following eletrophoresis through agarose gels, the DNA was transferred to nylon membranes (Optiblot™, IBI, New Haven, CT) by capillary action (Southern, 1975) using 1X saline sodium citrate (SSC) (1X SSC=0.15 M NaCl, 0.015 M sodium citrate). After baking in vacuo for 30 minutes, the blots were hybridized for 15 to 18 hours to 1x10⁶ cpm/ml of […] the method of random priming (Feinberg and Vogelstein, 1983). Hybridization was carried out at 42°C using 50 percent N,N-dimethylformamide, 6X saline sodium phosphate ethylenediamine tetraacetic acid (SSPE), 1.0 percent sodium dodyl sulfate (SDS), and 50 µg/ml salmon sperm DNA (1X SSPE=0.18 M NaCl; […] NaH₂PO₄, pH 7.4; 1 mmol ethylene diamine tetraacetic acid (EDTA)). The hybridized blots were washed as follows: twice in 2X SSC/0.1 percent SDS at room temperature for 1 hour, once in 0.1X SSC/0.1 percent SDS at room temperature for 30 minutes, and once in 0.1x SSC/0.1 percent supplemented with SDS at 65°C for 15 minutes. The filters were exposed to x-ray film and quantitated by densitometry.

[4] = read-out: Percent Inhibition at Specified µg/ml conc.

Nc1nc(S)c2ncn([C@@H]3O[C@H](CO)[C@@H](O)C3(F)F)c2n1 [(h), 2-deoxy-2,2-difluoro-D-ribofuranosyl-1-β-(2-amino-6-thiopurine)]
IC50 [1]: 4.3 µg/mL (≈ 13.5 µM)

Nc1nc2c(ncn2COC(CO)CO)c(=O)[nH]1 [Cytovene]
inhibition at 0.2 µg/mL ([2]; Human betaherpesvirus 5, AD169, 240 h, 0.2 µg/ml, WI-38 cells, 10 days): 31% | inhibition at 0.4 µg/mL ([2]; Human betaherpesvirus 5, AD169, 240 h, 0.4 µg/ml, WI-38 cells, 10 days): 31% | inhibition at 0.8 µg/mL ([2]; Human betaherpesvirus 5, AD169, 240 h, 0.8 µg/ml, WI-38 cells, 10 days): 40% | inhibition at 1.6 µg/mL ([2]; Human betaherpesvirus 5, AD169, 240 h, 1.6 µg/ml, WI-38 cells, 10 days): 65.5% | inhibition at 6.25 µg/mL ([2]; Human betaherpesvirus 5, AD169, 240 h, 6.25 µg/ml, WI-38 cells, 10 days): 98% | inhibition at 12.5 µg/mL ([2]; Human betaherpesvirus 5, AD169, 240 h, 12.5 µg/ml, WI-38 cells, 10 days): 100% | inhibition at 25 µg/mL ([2]; Human betaherpesvirus 5, AD169, 240 h, 25 µg/ml, WI-38 cells, 10 days): 100% | inhibition at 50 µg/mL ([2]; Human betaherpesvirus 5, AD169, 240 h, 50 µg/ml, WI-38 cells, 10 days): 100% | inhibition at 3.12 µg/mL ([2]; Human betaherpesvirus 5, AD169, WI-38, 240 h): 91%

Nc1nc(Cl)c2ncn([C@@H]3O[C@H](CO)[C@@H](O)C3(F)F)c2n1 [Example 1, 2-deoxy-2,2-difluoro-D-ribofuranosyl-1-β-(2-amino-6-chloropurine)]
IC50 [1]: 0.007 µg/mL (≈ 0.0218 µM)

COc1nc(N)nc2c1ncn2[C@@H]1O[C@H](CO)[C@@H](O)C1(F)F [Example 2, 2-deoxy-2,2-difluoro-D-ribofuranosyl-1-β-(2-amino-6-methoxypurine)]
IC50 [1]: 0.037 µg/mL (≈ 0.117 µM)

CCOc1nc(N)nc2c1ncn2[C@@H]1O[C@H](CO)[C@@H](O)C1(F)F [Example 3, 2-deoxy-2,2-difluoro-D-ribofuranosyl-1-β-(2-amino-6-ethoxypurine)]
IC50 [1]: 0.2 µg/mL (≈ 0.604 µM) | Percent Inhibition of Tumor ([3]; 25 mg/kg): 98% | Toxic Deaths ([3]; 25 mg/kg): 0/10 | Percent Inhibition of Tumor ([3]; 50 mg/kg): 97% | Toxic Deaths ([3]; 50 mg/kg): 0/10 | Percent Inhibition of Tumor ([3]; 100 mg/kg): 98% | Toxic Deaths ([3]; 100 mg/kg): 0/10

CN(C)c1nc(N)nc2c1ncn2[C@@H]1O[C@H](CO)[C@@H](O)C1(F)F [Example 4, 2-deoxy-2,2-difluoro-D-ribofuranosyl-1-β-(2-amino-6-dimethylaminopurine)]
IC50 [1]: 4.6 µg/mL (≈ 13.9 µM)

Nc1nc(I)c2ncn([C@@H]3O[C@H](CO)[C@@H](O)C3(F)F)c2n1 [Example 6, 2-deoxy-2,2-difluoro-D-ribofuranosyl-1-β-(2-amino-6-iodopurine)]
IC50 [1]: 0.093 µg/mL (≈ 0.225 µM)

N#Cc1nc(N)nc2c1ncn2[C@@H]1O[C@H](CO)[C@@H](O)C1(F)F [Example 7, 2-deoxy-2,2-difluoro-D-ribofuranosyl-1-β-(2-amino-6-cyanopurine)]
IC50 [1]: 2.5 µg/mL (≈ 8.01 µM)

Nc1nc(O)nc2c1ncn2[C@@H]1O[C@H](CO)[C@@H](O)C1(F)F [Example 9, 2-deoxy-2,2-difluoro-D-ribofuranosyl-1-β-(2-hydroxyadenosine)]
IC50 [1]: 0.7 µg/mL (≈ 2.31 µM)

Nc1nc(F)nc2c1ncn2[C@@H]1O[C@H](CO)[C@@H](O)C1(F)F [Example 10, 2-deoxy-2,2-difluoro-D-ribofuranosyl-1-β-(2-fluoroadenosine)]
IC50 [1]: 0.094 µg/mL (≈ 0.308 µM)

OC[C@H]1O[C@@H](n2cnc3cncnc32)C(F)(F)[C@@H]1O [Example 11, 2-deoxy-2,2-difluoro-D-ribofuranosyl-1-β-purine]
IC50 [1]: 1.3 µg/mL (≈ 4.78 µM)

Cc1nc(N)nc2c1ncn2[C@@H]1O[C@H](CO)[C@@H](O)C1(F)F [Example 13, 2-deoxy-2,2-difluoro-D-ribofuranosyl-1-β-(2-amino-6-methylpurine)]
IC50 [1]: 2.6 µg/mL (≈ 8.63 µM)

O=c1[nH]c(=O)n([C@@H]2O[C@H](CO)[C@@H](O)[C@@H]2F)cc1I [FIAU, 2'-deoxy-2'-fluoroarabino-5-iodouridine, reference compound]
inhibition at 0.1 µg/mL (Hepatitis B Virus; [4]): 10.8% | inhibition at 1 µg/mL (Hepatitis B Virus; [4]): 35.5% | inhibition at 10 µg/mL (Hepatitis B Virus; [4]): 65.3% | inhibition at 100 µg/mL (Hepatitis B Virus; [4]): 81.7% | IC50 (Hepatitis B Virus; read-out: concentration required to inhibit HBV DNA replication by 50 percent): 5.4 µg/mL (≈ 14.5 µM)
